Results on 20 molecules are retold here after patent publication US11839212B2, “Synergistic pesticidal compositions and methods for delivery of insecticidal active ingredients” (0903608 B.C. Ltd., priority 2018, dated 2023).

Common to all, as to test: Synergistic Growth Inhibition Assay (MIC and FIC index, 96-well, resazurin)
Type in all cases: cell-based

Test [1] has as its system Botrytis cinerea. The following applies: 48 hours incubation; for MIC: Botrytis cinerea, 48 h. As for the experimental part:
(§1) In some embodiments, the synergistic action between the pesticidal active ingredient, and the at least one C6-C10 (or alternatively C11 or C12) saturated or unsaturated aliphatic acid components of the pesticidal compositions according to embodiments of the present disclosure was tested using a Synergistic Growth Inhibition Assay, which is derived from and related to a checkerboard assay as is known in the art for testing of combinations of antimicrobial agents. In the Synergistic Growth Inhibition Assay used in accordance with some embodiments of the present disclosure, multiple dilutions of combinations of pesticidal active ingredient and at least one C6-C10 saturated or unsaturated aliphatic acid agents are tested in individual cells for inhibitory activity against a target pest or pathogenic organism. In one such embodiment, the combinations of pesticidal active ingredient and C6-C10 (or alternatively C11 or C12) saturated or unsaturated aliphatic acid agents may preferably be tested in decreasing concentrations. In a further such embodiment, the combinations of pesticidal active ingredient and C6-C10 (or alternatively C11 or C12) saturated or unsaturated aliphatic acid agents may be tested in increasing concentrations. These multiple combinations of the pesticidal active ingredient and at least one C6-C10 (or alternatively C11 or C12) saturated or unsaturated aliphatic acid agents may be prepared in 96-well microtiter plates. In one such embodiment, the Synergistic Growth Inhibition Assay then comprises rows which each contain progressively decreasing concentrations of the pesticidal active ingredient and one or more C6-C10 (or alternatively C11 or C12) saturated or unsaturated aliphatic acid agents to test for the MIC of the agents in combination at which growth of the target pest or pathogen is inhibited. Thus, each well of the microtiter plate is a unique combination of the two agents, at which inhibitory efficacy of the combination against the target pest or pathogen can be determined.
(§2) In one embodiment according to the present disclosure, for each row of microtiter cells in the Synergistic Growth Inhibition Assay, the FIC index is calculated from the lowest concentration of the pesticidal active ingredient and one or more C6-C10 saturated or unsaturated aliphatic acid agents necessary to inhibit growth of a target pest or pathogen. The FIC of each component is derived by dividing the concentration of the agent present in that well of the microtiter plate by the minimal inhibitory concentration (MIC) needed of that agent alone to inhibit growth of the target pest or pathogen. The FIC index is then the sum of these values for both agents in that well of the microtiter plate. […] Fractional inhibitory concentration indices may then used as measure of synergy. […] When the FIC index is equal to 1, the combination is additive.
(§3) Then, serial dilutions of these initial compositions in successive wells in the row of the microtiter plate were used to assay the pesticidal composition under the same conditions to determine the concentration of the composition combining the two agents corresponding to the microtiter well in which growth inhibition of the target pest or organism ceases.
Similarly to as described above, Resazurin was used as an indicator of growth or inhibition of growth of Botrytis cinerea in the exemplary Synergistic Growth Inhibition Assay. In addition to the color change of the resazurin, an optical or visual examination of the microtiter well may also be made to additionally determine the presence of growth or inhibition of growth of the Botrytis cinerea.

The test system of test [2] is Sclerotinia sclerotiorum. Particulars: Sclerotinia sclerotiorum, […]. As for the experimental part: as §1, §2, §3
Similarly to as described above, Resazurin was used as an indicator of growth or inhibition of growth of Sclerotinia sclerotiorum in the exemplary Synergistic Growth Inhibition Assay. In addition to the color change of the resazurin, an optical or visual examination of the microtiter well may also be made to additionally determine the presence of growth or inhibition of growth of the Sclerotinia sclerotiorum.

The subject of test [3] is Alternaria solani. Particulars: for MIC: Alternaria solani. As to the method: as §1, §2, §3
A culture of the representative fungal pathogen, namely Fusarium oxysporum, Botrytis cinerea, or Sclerotinia sclerotiorum, for example, is grown to exponential phase in potato dextrose broth (PDB).

In test [4] the test system is Fusarium oxysporum. Particulars: Fusarium oxysporum, Compound B alone. As to the method:
as §1, §2, §3
Resazurin dye (also known as Alamar blue dye) was used as an indicator to determine the presence of growth or inhibition of growth of Fusarium oxysporum in the wells of the 96 well microtiter plates used in the exemplary Synergistic Growth Inhibition Assay. In addition to the color change of the resazurin dye in the presence of growth of the Fusarium oxysporum, an optical or visual examination of the microtiter well may also be made to additionally determine the presence of growth or inhibition of growth of the Fusarium oxysporum.

Setting [5] is: Table 51, Compound B alone, read-out: MIC (B).
Where [6] appears, read: Compound B alone, 7 days incubation, read-out: MIC (B).
[7] abbreviates: Table 59, Compound B alone, read-out: MIC (B).
Setting [8] is: 48 h, Table 27, 48 hours incubation, read-out: MIC (B).
Where [9] appears, read: 48 h, Table 30, 48 hours incubation, read-out: MIC (B).
Setting [10] is: 48 h, Table 32, 48 hours incubation, read-out: MIC (B).
The mark [11] stands for this setting: Table 60, Compound B alone, 7 days incubation, read-out: MIC (B).
Setting [12] is: Compound A alone, 7 days incubation, read-out: MIC (A).
The mark [13] stands for this setting: read-out: MIC (B), Table 51, Compound B alone.
The mark [14] stands for this setting: read-out: MIC (B), Table 59, Compound B alone.
The mark [15] stands for this setting: Table 56, Compound B alone, read-out: MIC (B).

Where two headings read alike, the source gives them in different places.

What is called MIC is the least concentration at which growth counts as inhibited. Turning to `CCCCCCC(O)C(=O)O` (stereo not drawn) [2-Hydroxyoctanoic acid], the MIC in test [1] (setting [5]), in test [2] (setting [6]) and in test [3] (setting [6]) was 625 µg/mL in each case.

In the case of `CCC(C)CCC(=O)O` (stereo not drawn) [4-Methylhexanoic acid], the values for the MIC in test [1] (setting [5]), in test [1] (setting [7]) and in test [3] (setting [6]) were 78.1 µg/mL, 78.1 µg/mL and 312 µg/mL, respectively.

`CCCC(C)CC(=O)O` (stereo not drawn) [3-Methylhexanoic acid]: the MIC was found to be 125 µg/mL in test [1] (setting [5]), 125 µg/mL in test [1] (setting [7]) and 250 µg/mL in test [3] (setting [6]).

Regarding `CC(C)CC(=O)O` [3-Methylbutyric acid], the MIC in test [1] (setting [5]) amounted to 312 µg/mL; in test [1] (setting [7]), 312 µg/mL; in test [2] (setting [6]), 625 µg/mL; in test [3] (setting [6]) it was 312 µg/mL.

As to `CCCC/C=C/CC(=O)O` [Trans-3-octenoic acid], the MIC in test [4] (setting [8]), in test [4] (setting [9]), in test [4] (setting [10]), in test [3] (setting [6]) and in test [3] (setting [11]) was 156 µg/mL throughout.

Regarding `CCCCCCC(=O)O` [Heptanoic acid, heptanoic acid], the MIC in test [1] (Table 24, Compound B alone, read-out: MIC (B)) came out at 156 µg/mL; in test [2] (Table 16, Compound B alone, incubation 7 days, read-out: MIC (B)) it was 39.1 µg/mL; in test [2] (Table 17, Compound B alone, incubation 7 days, read-out: MIC (B)), 39.1 µg/mL; in test [2] (Table 19, Compound B alone, incubation 7 days, read-out: MIC (B)) it was 39.1 µg/mL; in test [3] (setting [6]) it was 156 µg/mL; in test [3] (setting [11]), 156 µg/mL.

Regarding `C=CCCCCCC(=O)O` [7-Octenoic acid], the MIC in test [4] (setting [8]) was found to be 312 µg/mL; in test [4] (setting [9]), 312 µg/mL; in test [4] (setting [10]), 156 µg/mL; in test [3] (setting [6]) it was 156 µg/mL.

As for `CC(C)CC(C)c1sccc1NC(=O)c1cn(C)nc1C(F)(F)F` (stereo not drawn) [Penthiopyrad, reference compound], the MIC in test [1] (Table 56, Compound A alone, read-out: MIC (A)) came to 250 µg/mL; in test [2] (setting [12]), 500 µg/mL; in test [3] (setting [12]), 500 µg/mL.

For the molecule `O=C(O)CCCCCCCCCCCO` [12-Hydroxydodecanoic acid], the MIC in test [1] (setting [13]) is 100 µg/mL; in test [1] (read-out: MIC (B), Table 55, Compound B alone), 100 µg/mL; in test [1] (read-out: MIC (B), Table 56, Compound B alone), 100 µg/mL; in test [1] (setting [14]) it was 50 µg/mL; in test [3] (read-out: MIC (B)), 100 µg/mL.

With `CC/C=C\CC(=O)O` [Cis-3-hexenoic acid], the MIC stood at 156 µg/mL in test [2] (Table 34, Compound B alone, 7 days incubation, read-out: MIC (B)) and 312 µg/mL in test [3] (setting [6]).

As to `CCCCCCC(C)CC(=O)O` (stereo not drawn) [3-Methylnonanoic acid], the MIC in test [3] (setting [6]) amounted to 62.5 µg/mL.

As for `CCCCC(CC)C(=O)O` (stereo not drawn) [2-Ethylhexanoic acid], the MIC in test [1] (setting [5]), in test [1] (setting [7]), in test [2] (setting [6]) and in test [3] (setting [6]) was 156 µg/mL throughout.

As to `CCCCC=CCC(=O)O` [3-Octenoic acid, 3-octenoic acid], the MIC in test [4] (24 h, Table 3, 24 hour incubation, read-out: MIC(B)) was 147 µg/mL; in test [4] (24 h, Table 4, 24 hour incubation, read-out: MIC (B)) it was 147 µg/mL; in test [4] (setting [9]) it was 156 µg/mL; in test [4] (48 h, Table 31, 48 hours incubation, read-out: MIC (B)), 156 µg/mL; in test [4] (setting [10]), 156 µg/mL; in test [3] (setting [11]) it was 156 µg/mL.

Consider `CCC/C=C/C(=O)O` [Trans-2-hexenoic acid, trans-2-hexenoic acid], for which the MIC in test [4] (24 h, Table 1, 24 hour incubation, read-out: MIC(B)) amounted to 312 µg/mL; in test [4] (24 h, Table 2, 24 hour incubation, read-out: MIC (B)), 312 µg/mL; in test [1] (Table 43, Compound B alone, read-out: MIC (B)) it was 78.1 µg/mL; in test [1] (Table 44, Compound B alone, read-out: MIC (B)), 39.1 µg/mL; in test [1] (Table 45, Compound B alone, read-out: MIC (B)), 156 µg/mL; in test [1] (Table 52, Compound B alone, read-out: MIC(B)), 156 µg/mL. Moreover, the MIC was determined as 312 µg/mL in test [1] (setting [15]) and 156 µg/mL in test [2] (Table 33, Compound B alone, 7 days incubation, read-out: MIC (B)).

In the case of `CO/C=C(/C(=O)OC)c1ccccc1COc1cccc(C(F)(F)F)n1` [Picoxystrobin, reference compound], the “MIC (A)” value in test [1] (Table 51, Compound A alone) is 250 µg/mL; in test [1] (Table 52, Compound A alone), 250 µg/mL; in test [3] (Compound A alone, 7 days incubation), 500 µg/mL; in test [3] (Table 60, Compound A alone, 7 days incubation), 500 µg/mL.

Take `O=C(O)CCCCCCCCCO` [10-Hydroxydecanoic acid]: the MIC amounted to 250 µg/mL in test [1] (setting [13]); 250 µg/mL in test [1] (setting [14]); 500 µg/mL in test [2] (read-out: MIC (B), Compound B alone, 7 days incubation); 1000 µg/mL in test [3] (read-out: MIC (B)).

With `OC(Cc1ccccc1Cl)(Cn1nc[nH]c1=S)C1(Cl)CC1` (stereo not drawn) [Prothioconazole, reference compound], the minimal inhibitory concentration (MIC) in test [1] (Table 57, Compound A alone, read-out: MIC (A)) was 31.2 µg/mL; in test [2] (setting [12]) it was 62.5 µg/mL; in test [3] (setting [12]), 500 µg/mL.

Turning to `CCC(O)C(=O)O` (stereo not drawn) [2-Hydroxybutyric acid], the MIC in test [1] (setting [5]) was 5000 µg/mL; in test [1] (setting [15]), 2500 µg/mL; in test [1] (Table 57, Compound B alone, read-out: MIC (B)), 2500 µg/mL; in test [1] (setting [7]), 2500 µg/mL; in test [2] (setting [6]) it was 5000 µg/mL; in test [3] (setting [6]), 2500 µg/mL. In test [3] (Compound B alone, 7 days incubation), the “MIC (B)” value came out at 2500 µg/mL.

For the molecule `CCCCC(O)C(=O)O` (stereo not drawn) [2-Hydroxyhexanoic acid], the minimal inhibitory concentration (MIC) in test [1] (setting [5]) turned out to be 1250 µg/mL; in test [3] (setting [6]), 2500 µg/mL.

Consider `CCCCCC(O)CC(=O)O` (stereo not drawn) [3-Hydroxyoctanoic acid], for which the MIC in test [1] (setting [5]) came out at 625 µg/mL; in test [1] (setting [15]), 625 µg/mL; in test [1] (setting [7]) it was 625 µg/mL; in test [3] (setting [6]), 1250 µg/mL.
